{
  "source": "patent US10238667B2",
  "about": "“Vitamin D receptor/SMAD genomic circuit gates fibrotic response” (Salk Institute for Biological Studies, priority 2013, dated 2019)",
  "tested_on": "SMAD3",
  "assay": "ChIP-qPCR time course of SMAD3 binding at COL1A1 regulatory region #1 in LX-2 cells",
  "format": "cell-based, human",
  "excerpt": "FIGS. 14A-14D. VDR/SMAD Genomic Circuit. […] Data represents the mean±SEM of at least three independent experiments performed in triplicate. Asterisks denote statistically significant differences compared to calcipotriol-induced VDR occupancy or TGFβ1-induced SMAD3 occupancy of corresponding time point (Student's unpaired t-test, *p<0.05, **p<0.01). […] Data represents the mean±SEM of at least three independent experiments performed in triplicate. (D) Model depicting proposed VDR/SMAD genomic circuit controlling pro-fibrogenic responses in HSCs.\nCells were then harvested for ChIP assay. The experimental procedure for ChIP was as previously described (Barish et al., 2010). Briefly, after fixation, nuclei from LX-2 cells were isolated, lysed and sheared with a Diagenode Bioruptor to yield DNA fragment sizes of 200-1000 base pairs followed by immunoprecipitation using antibodies listed below: normal rabbit IgG (Santa Cruz, sc-2027), VDR (Santa Cruz, sc-1008), SMAD3 (Abcam, ab28379) and histone H3 (Abcam, ab1791). For ChIP-Re-ChIP, after first ChIP, the immunoprecipitated DNA-protein complex was eluted from beads using 10 mM DTT, diluted 100-fold then re-immunoprecipitated with a second antibody, re-ChIP.\nSpecifically, ChIP-qPCR was employed to monitor binding of VDR and SMAD3 to the cis-regulatory region of COL1A1 at multiple time points (0, 1, 2, 4, 6, 16 hours).",
  "data": [
    {"smiles": "C=C1/C(=C\\C=C2/CCC[C@]3(C)[C@@H]([C@H](C)/C=C/[C@@H](O)C4CC4)CC[C@@H]23)C[C@@H](O)C[C@@H]1O", "note": "[calcipotriol, 1α,24-(OH)2-24-cyclopropyl-D3]", "values": [
      {"measurement": "SMAD3 recruitment reduced", "setting": "after 4 hours, TGFβ1 + calcipotriol vs TGFβ1", "result": 70, "unit": "%"},
      {"measurement": "time of maximum binding of SMAD3 post-TGFβ1 treatment", "setting": "in the presence of calcipotriol 100 nM, TGFβ1 alone maximal at 4 hours", "result": 1, "unit": "h"}
    ]}
  ]
}
